Measurements from ChEMBL document CHEMBL6177982, “Structural Optimization of Pyrazole Compounds as Hsp90 Regulators with Enhanced Antitumor Activity” (J Med Chem, 2025).
pIC50: −log10 of the molar value. The source made the active and inactive calls. The calls are words filed in the database; no cut-off is given here.

What was measured:
[1] = system: HCT-116; test: Antiproliferative activity against CDC37 knockout human HCT-116 cells assessed as inhibition of cell proliferation incubated for 72 hrs by MTT assay; format: functional, cell-based; settings: for pIC50: HCT-116, 72 h
[2] = system: HCT-116; test: Antiproliferative activity against human HCT-116 cells assessed as inhibition of cell proliferation incubated for 72 hrs by MTT assay; format: functional, cell-based; settings: HCT-116, 72 h
[3] = Selectivity ratio of IC50 for antiproliferative activity against CDC37 knockout human HCT-116 cells to IC50 for antiproliferative activity against human HCT-116 cells; format: functional
[4] = target: Heat shock protein HSP 90-beta/Hsp90 co-chaperone Cdc37 (Homo sapiens) (UniProt P08238+Q16543); test: Inhibition of His-tagged HSP90(unknown origin)/GST-tagged CDC37 (unknown origin) protein-protein interaction at 100 uM preincubated with HSP90 for 1 hrs followed by CDC37 addition and measured after 1 hrs by HTRF assay relative to control; format: protein-complex assay
[5] = target: Heat shock protein HSP90 (Homo sapiens) (UniProt P07900+P08238); test: Induction of thermal stabilization of HSP90 in human HCT-116 cells at 10 uM at 53 to 55 degreeC by CETSA based Western blot analysis; format: cell-based
[6] = Permeability of compound at pH 7.4 incubated for 4 hrs by PAMPA based UV analysis; format: ADME; settings: read-out: permeability
[7] = system: HT-29; test: Antiproliferative activity against human HT-29 cells assessed as inhibition of cell proliferation incubated for 72 hrs by MTT assay; format: functional, cell-based; settings: HT-29, 72 h
[8] = system: SK-BR-3; test: Antiproliferative activity against human SK-BR-3 cells assessed as inhibition of cell proliferation incubated for 72 hrs by MTT assay; format: functional, cell-based; settings: SK-BR-3, 72 h
[9] = system: MCF7; test: Antiproliferative activity against human MCF7 cells assessed as inhibition of cell proliferation incubated for 72 hrs by MTT assay; format: functional, cell-based; settings: MCF7, 72 h
[10] = system: HT-1080; test: Antiproliferative activity against human HT-1080 cells assessed as inhibition of cell proliferation incubated for 72 hrs by MTT assay; format: functional, cell-based; settings: HT-1080, 72 h
[11] = system: CT26; test: Antiproliferative activity against mouse CT26 cells assessed as inhibition of cell proliferation incubated for 72 hrs by MTT assay; format: functional, cell-based; settings: CT26, 72 h

| Structure (SMILES) | pIC50 [1] | pIC50 [2] | inhibition [4] [%] | Ratio IC50 [3] | further results |
| --- | --- | --- | --- | --- | --- |
| NC(=O)C1CCCCN1C(=O)/C=C/c1cn(-c2ccccc2)nc1-c1cccc([N+](=O)[O-])c1 (stereo unspecified) | < 4.30 | < 4.30 | < 20 | – | – |
| NC(=O)C1CCCCN1C(=O)/C=C/c1cn(-c2ccccc2)nc1-c1cccs1 (stereo unspecified) | < 4.30 | 5.07 | 59 | >5 | – |
| Cc1cccc(S(=O)(=O)/C=C/c2cn(-c3ccccc3)nc2-c2cccnc2)c1 | < 4.30 | 5.37 | 83.2 | >10 | – |
| O=C(/C=C/c1cn(-c2ccccc2)nc1-c1cccnc1)N1CCCCC1 | < 4.30 | 5.09 | 68.8 | >5 | – |
| COc1ncccc1-c1nn(-c2ccccc2)cc1/C=C/C(=O)N1CCCCC1C(N)=O (stereo unspecified) | < 4.30 | 4.90 | 45.7 | <5 | – |
| NC(=O)C1CCCCN1C(=O)/C=C/c1cn(-c2ccccc2)nc1-c1ccc2ccccc2c1 (stereo unspecified) | < 4.30 | < 4.30 | < 20 | – | – |
| Cc1cccc(-c2nn(-c3ccccc3)cc2/C=C/C(=O)N2CCCCC2C(N)=O)c1 (stereo unspecified) | 4.46 | 5.09 | 52.9 | 4.3 | – |
| Cc1ccccc1S(=O)(=O)/C=C/c1cn(-c2ccccc2)nc1-c1cccnc1 | < 4.30 | 5.59 | 87.6 | >25 | – |
| NC(=O)C1CCCCN1C(=O)/C=C/c1cn(-c2ccccc2)nc1-c1cccnc1 (stereo unspecified) | < 4.00 | 5.21 | 74.4 | >10 | – |
| COc1cc(-c2nn(-c3ccccc3)cc2/C=C/C(=O)N2CCCCC2C(N)=O)ccc1Br (stereo unspecified) | 4.35 | 5.00 | 49.2 | 4.4 | – |
| NC(=O)C1CCCCN1C(=O)/C=C/c1cn(-c2ccccc2)nc1Cc1ccccc1 (stereo unspecified) | 4.37 | 4.74 | 38.9 | 2.3 | – |
| O=C(/C=C/c1cn(-c2ccccc2)nc1-c1cccnc1)N1CCCC1 | < 4.30 | 5.07 | 65.9 | >5 | – |
| Cc1cc(-c2nn(-c3ccccc3)cc2/C=C/C(=O)N2CCCCC2C(N)=O)ccc1Cl (stereo unspecified) | 4.37 | 4.97 | 46.9 | 4 | – |
| Cc1ccc(S(=O)(=O)/C=C/c2cn(-c3ccccc3)nc2-c2cccnc2)cc1 | < 4.30 | 5.32 | 85.8 | >10 | – |
| NC(=O)C1CCCCN1C(=O)/C=C/c1cn(-c2ccccc2)nc1-c1cncc(C(F)(F)F)c1 (stereo unspecified) | < 4.30 | < 4.30 | < 20 | – | – |
| NC(=O)C1CCCCN1C(=O)/C=C/c1cn(-c2ccccc2)nc1-c1cccnc1Br (stereo unspecified) | < 4.30 | 4.93 | 42.9 | <5 | – |
| CCN(CC)C(=O)/C=C/c1cn(-c2ccccc2)nc1-c1cccnc1 | 4.30 | 4.99 | 60.2 | 4.8 | – |
| NC(=O)C1CCCCN1C(=O)/C=C/c1cn(-c2ccccc2)nc1-c1cccc(Cl)c1 (stereo unspecified) | 4.55 | 5.04 | 48.3 | 3.1 | – |
| NC(=O)C1CCCCN1C(=O)/C=C/c1cn(-c2ccccc2)nc1-c1cccc(N)c1 (stereo unspecified) | < 4.30 | 5.04 | 68.3 | >5 | – |

The next lines start with results.

| pIC50 [1] | pIC50 [2] | inhibition [4] [%] | Structure (SMILES) | Ratio IC50 [3] | further results |
| --- | --- | --- | --- | --- | --- |
| 4.37 | 4.85 | 45.6 | NC(=O)C1CCCCN1C(=O)/C=C/c1cn(-c2ccccc2)nc1-c1cccc(F)c1 (stereo unspecified) | 3 | – |
| < 4.30 | < 4.30 | – | O=S(=O)(CCc1cn(-c2ccccc2)nc1-c1cccnc1)c1ccccc1 | – | Activity [5]: inactive |
| < 4.30 | < 4.30 | < 20 | CCOC(=O)c1cccc(-c2nn(-c3ccccc3)cc2/C=C/C(=O)N2CCCCC2C(N)=O)c1 (stereo unspecified) | – | – |
| < 4.30 | 5.01 | 55.4 | NC(=O)C1CCCCN1C(=O)/C=C/c1cn(-c2ccccc2)nc1-c1ccco1 (stereo unspecified) | >5 | – |
| 4.56 | 4.99 | 45.4 | Cc1ccccc1-c1nn(-c2ccccc2)cc1/C=C/C(=O)N1CCCCC1C(N)=O (stereo unspecified) | 2.7 | – |
| 4.33 | 5.04 | 63.6 | CCCN(CCC)C(=O)/C=C/c1cn(-c2ccccc2)nc1-c1cccnc1 | 5.1 | – |
| < 4.30 | 5.89 | 89.2 | O=S(=O)(/C=C/c1cn(-c2ccccc2)nc1-c1cccnc1)c1ccc(Cl)cc1 | >50 | – |
| 4.35 | 4.91 | 50.2 | NC(=O)C1CCCCN1C(=O)/C=C/c1cn(-c2ccccc2)nc1-c1cccc(Br)c1 (stereo unspecified) | 3.6 | – |
| < 4.30 | < 4.30 | < 20 | NC(=O)C1CCCCN1C(=O)/C=C/c1cn(-c2ccccc2)nc1-c1cccc(C(=O)O)c1 (stereo unspecified) | – | – |
| 4.32 | 5.03 | 59.8 | CCCN(C)C(=O)/C=C/c1cn(-c2ccccc2)nc1-c1cccnc1 | 5.2 | – |
| 4.51 | 4.96 | 44.7 | Cc1ccc(-c2nn(-c3ccccc3)cc2/C=C/C(=O)N2CCCCC2C(N)=O)cc1 (stereo unspecified) | 2.8 | – |
| 4.49 | 4.93 | 45.4 | NC(=O)C1CCCCN1C(=O)/C=C/c1cn(-c2ccccc2)nc1-c1ccc(Cl)cc1 (stereo unspecified) | 2.7 | – |
| < 4.30 | 4.96 | 43.3 | COc1cc(-c2nn(-c3ccccc3)cc2/C=C/C(=O)N2CCCCC2C(N)=O)ccc1Cl (stereo unspecified) | <5 | – |
| 4.60 | 5.11 | 62.9 | Cc1ccc(-c2nn(-c3ccccc3)cc2/C=C/C(=O)N2CCCCC2C(N)=O)cc1C (stereo unspecified) | 3.2 | Papp at 4 h [6]: 23 ×10⁻⁶ cm/s; pIC50 [7]: 4.99; pIC50 [8]: 4.86; pIC50 [9]: 4.91; pIC50 [10]: 4.83; pIC50 [11]: 5.03 |
| < 4.30 | < 4.30 | < 20 | N#Cc1cccc(-c2nn(-c3ccccc3)cc2/C=C/C(=O)N2CCCCC2C(N)=O)c1 (stereo unspecified) | – | – |
| < 4.00 | 5.15 | 69.5 | NC(=O)C1CCCCN1C(=O)/C=C/c1cn(-c2ccccc2)nc1-c1ccccn1 (stereo unspecified) | >10 | – |
| < 4.00 | 5.09 | 70.4 | NC(=O)C1CCCCN1C(=O)/C=C/c1cn(-c2ccccc2)nc1-c1ccncc1 (stereo unspecified) | >10 | – |
| < 4.00 | 5.05 | 70.9 | COc1cncc(-c2nn(-c3ccccc3)cc2/C=C/C(=O)N2CCCCC2C(N)=O)c1 (stereo unspecified) | >10 | – |
| 4.54 | 5.00 | 46.4 | NC(=O)C1CCCCN1C(=O)/C=C/c1cn(-c2ccccc2)nc1-c1ccccc1 (stereo unspecified) | 2.8 | – |
| 4.34 | 4.91 | 58.9 | CN(C)C(=O)/C=C/c1cn(-c2ccccc2)nc1-c1cccnc1 | 3.7 | – |
| – | 5.14 | 72.5 | O=C(/C=C/c1cn(-c2ccccc2)nc1-c1cccnc1)N1CCCCCC1 | >20 | Activity [1]: inactive |
| < 4.30 | 4.90 | 45.7 | Cc1cc(-c2nn(-c3ccccc3)cc2/C=C/C(=O)N2CCCCC2C(N)=O)ccc1F (stereo unspecified) | <5 | – |
| < 4.00 | 5.04 | 72.5 | NC(=O)C1CCCCN1C(=O)/C=C/c1cn(-c2ccccc2)nc1-c1cncc(Br)c1 (stereo unspecified) | >10 | – |
| < 4.30 | 4.99 | 67.8 | COc1cccc(-c2nn(-c3ccccc3)cc2/C=C/C(=O)N2CCCCC2C(N)=O)c1 (stereo unspecified) | >5 | – |
